Measured values as given in ChEMBL document CHEMBL1201862, “PubChem BioAssay data set” (2004).
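Results reflect a 48-hour exposure of cells in 96-well plates to compound at five concentrations. Here, GI50 denotes the concentration required for 50% inhibition of growth.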 Activity calls are given as the source filed them. Cut-off read from the data, not from the text of the source: active = GI50 up to about 1.1 µM and inactive = higher.

Tests used:
Assay in all cases: inhibition of tumour cell growth, NCI panel, 48 h
CCRF-CEM = system: CCRF-CEM
DMS-114 = system: DMS-114
DMS-273 = system: DMS-273
HCC 2998 = system: HCC 2998
HT-29 = system: HT-29
KM-20L2 = system: KM-20L2
LXFL 529 = system: LXFL 529
M19-MEL = system: M19-MEL
RPMI-8226 = system: RPMI-8226
SR = system: SR
TK-10 = system: TK-10
UACC-257 = system: UACC-257
786-0 = system: 786-0
A498 = system: A498
A549 = system: A549
BT-549 = system: BT-549
IGROV-1 = system: IGROV-1
MDA-N = system: MDA-N
NCI/ADR-RES = system: NCI/ADR-RES
SK-OV-3 = system: SK-OV-3

| Structure (SMILES) | GI50 (CCRF-CEM) | GI50 (DMS-114) | GI50 (DMS-273) | GI50 (HCC 2998) | GI50 (HT-29) | GI50 (KM-20L2) | GI50 (LXFL 529) | GI50 (M19-MEL) | GI50 (RPMI-8226) | GI50 (SR) | GI50 (TK-10) | GI50 (UACC-257) | GI50 (786-0) | GI50 (A498) | GI50 (A549) | GI50 (BT-549) | GI50 (IGROV-1) | GI50 (MDA-N) | GI50 (NCI/ADR-RES) | GI50 (SK-OV-3) |
| --- | --- | --- | --- | --- | --- | --- | --- | --- | --- | --- | --- | --- | --- | --- | --- | --- | --- | --- | --- | --- |
| O=C1CN2C(Cl)(Cl)C2(c2ccccc2)c2cc(Cl)ccc2N1CC1CC1 (stereo not drawn) | 27.2 µM (inactive) | 36.2 µM (inactive) | 25.5 µM (inactive) | 18.7 µM (inactive) | 17.3 µM (inactive) | 23.4 µM (inactive) | 42.4 µM (inactive) | 35.4 µM (inactive) | 37.2 µM (inactive) | 29.2 µM (inactive) | 33.8 µM (inactive) | 18.9 µM (inactive) | – | – | – | – | – | – | – | – |
| CC(C)(C)C(=O)OCC1C(=O)OCC1C(=O)N1Cc2cc3ccccc3nc2C1 (stereo not drawn) | 0.711 µM (active) | 4.81 µM (inactive) | 3.04 µM (inactive) | 15.5 µM (inactive) | 3.5 µM (inactive) | 6.07 µM (inactive) | 1.47 µM (inactive) | 3.54 µM (inactive) | 1.31 µM (inactive) | 0.757 µM (active) | 2.15 µM (inactive) | 4.42 µM (inactive) | 2.5 µM (inactive) | 13.2 µM (inactive) | 15.2 µM (inactive) | 3.14 µM (inactive) | 15 µM (inactive) | 3.83 µM (inactive) | 4.92 µM (inactive) | 16.1 µM (inactive) |
| O=C(N/N=C/C=C/c1ccccc1)[C@H](O)[C@@H](O)C(=O)N/N=C/C=C/c1ccccc1 | > 100 µM (inactive) | > 100 µM (inactive) | > 100 µM (inactive) | > 100 µM (inactive) | – | > 100 µM (inactive) | > 100 µM (inactive) | > 100 µM (inactive) | > 100 µM (inactive) | > 100 µM (inactive) | > 100 µM (inactive) | > 100 µM (inactive) | – | > 100 µM (inactive) | > 100 µM (inactive) | – | > 100 µM (inactive) | – | – | > 10 µM (inactive) |
| Clc1ccc(-c2nnc(-c3nsc4ccccc34)o2)cc1 | – | 65.6 µM (inactive) | 26.6 µM (inactive) | 24.9 µM (inactive) | 25.9 µM (inactive) | 46.2 µM (inactive) | 71 µM (inactive) | > 100 µM (inactive) | 24.2 µM (inactive) | > 10 µM (inactive) | 25.2 µM (inactive) | > 100 µM (inactive) | – | – | 40.6 µM (inactive) | – | 18.5 µM (inactive) | – | – | – |
| CCC1(OC(=O)CN)C(=O)OCc2c1cc1n(c2=O)Cc2cc3ccccc3nc2-1 (stereo not drawn) | 0.01 µM (active) | 0.00989 µM (active) | 0.00471 µM (active) | 0.0664 µM (active) | – | 0.124 µM (active) | 0.546 µM (active) | 0.123 µM (active) | < 0.0132 µM (active) | 0.01 µM (active) | 0.516 µM (active) | 0.0353 µM (active) | 0.01 µM (active) | 0.0512 µM (active) | 0.011 µM (active) | 0.0593 µM (active) | 0.0411 µM (active) | – | 0.0118 µM (active) | 0.0297 µM (active) |
